Columns and labels:
potato leaf explants = assay: Toxicity of galactose to potato leaf explants (shoot regeneration); assay type: cell-based, Solanum tuberosum
Method: In order to be useful for selection, the selective component (otherwise called selective agent) should not be able to sustain significant growth and preferably have adverse/toxic effects to the non-transformed cells/tissues. To assess the applicability of galactose selection following transformation, a number of plant species representing a range of different botanical families were tested for sensitivity to galactose, using explants which may be suitable for transformation experiments. Young leaves useful for the transformation of potato were prepared from leaves of 28 d old in vitro shoot cultures. The leaves were cut off avoiding the meristem at the leaf corner and were cut twice across the […]. The explants were then put on modified MS-medium (Murashige and Skoog 1962. Physiol. Plant. 15: 473-497) containing various concentrations of sucrose and galactose. After 3 weeks, shoots were harvested and the explants were transferred to fresh medium of the same composition. This was repeated for 2 more harvests and the total number of explants with regenerated shoots formed on each medium was calculated (see table below).

Petunia = assay: Sensitivity of Petunia to galactose; assay type: cell-based
Method: (§1) In order to be useful for selection, the selective component (otherwise called selective agent) should not be able to sustain significant growth and preferably have adverse/toxic effects to the non-transformed cells/tissues. To assess the applicability of galactose selection following transformation, a number of plant species representing a range of different botanical families were tested for sensitivity to galactose, using explants which may be suitable for transformation experiments.

immature wheat embryos = assay: Toxicity of galactose to immature wheat embryos (germination and shoot growth); assay type: cell-based, Triticum aestivum; conditions: 20 g/l sucrose, relative to control medium (no galactose) = 100
Method: In order to be useful for selection, the selective component (otherwise called selective agent) should not be able to sustain significant growth and preferably have adverse/toxic effects to the non-transformed cells/tissues. To assess the applicability of galactose selection following transformation, a number of plant species representing a range of different botanical families were tested for sensitivity to galactose, using explants which may be suitable for transformation experiments. As an example of a monocotyledonous species, wheat was studied. Immature wheat embryos (2-3 weeks old, a total of 161) were carefully removed from the seed and were cultivated on Gamborg B5 medium (Gamborg et al. 1968. Exp. Cell Res. 50: 151-158) supplemented with 9.0 g/l Bacto agar. 20 g/l sucrose and galactose according to the experiment. The embryos were cultivated in the dark for about 10 days where germinated embryos were transferred to fresh medium of the same composition and cultivated in a 16 h/8 h day/night regime for 4-5 weeks. The effect of galactose was evaluated by the number of germinated embryos and by measuring the length of the leaf on these embryos, relative to the control medium (no galactose).

[1] = system: oil seed rape hypocotyl explants inoculated with Agrobacterium tumefaciens EHA101; assay: Selection of transgenic oil seed rape on galactose containing media; assay type: cell-based, Brassica napus; conditions: galactose 2.5 g/l, sucrose 10 g/l
Method: Hypocotyl explants of oil seed rape were prepared using a protocol modified according to Radke et al. (1988. Theor. Appl. Genet. 78: 161-168). Hypocotyls of 5 d old seedlings were cut into 1 cm segments and inoculated with a suspension of Agrobacterium tumefaciens strain EHA101 (OD660=0.1-0.5, prepared according to standard procedures). After inoculation, the explants were dried carefully on filterpaper before co-cultivation.
(§2) After co-culture, the explants were transferred to selection medium consisting of modified MS-medium (Murashige and Skoog 1962. Physiol. Plant. 15: 473-497) supplemented with 500 mg/l carbenicillin and various concentrations of sucrose and galactose. After 7-8 weeks, shoots were harvested and transgenicity was evaluated by subjecting the harvested shoots to the assay for β-glucuronidase activity (Jefferson et al. 1987. Plant Mol. Biol. Rep. 5: 387-405), a marker enzyme encoded by a gene placed adjacent the selective gene on the T-DNA of the transformation vector (FIG. 3).

[2] = system: oil seed rape hypocotyl explants; assay: Toxicity of galactose to oil seed rape hypocotyl explants (shoot regeneration); assay type: cell-based, Brassica napus
Method: as §1
Hypocotyl explants useful for the transformation of oil seed rape were prepared using a protocol modified after Radke et al. (1988. Theor. Appl. Genet. 78: 161-168). Hypocotyls of 5 d old seedlings were cut into 1 cm segments and transferred to modified MS-medium (Murashige and Skoog 1962. Physiol. Plant. 15: 473-497) containing sucrose and galactose according to the experiment. After 3-4 weeks, shoots were harvested and the explants were transferred to fresh medium of the same composition. This was repeated for 3 more harvests and the total number of regenerated shoots formed on each medium was calculated (see table below).

[3] = system: sugar beet cotyledonary explants; assay: Toxicity of galactose to sugar beet cotyledonary explants; assay type: cell-based, Beta vulgaris; conditions: 20 g/l sucrose and various concentrations galactose; 4-5 weeks
Method: In order to be useful for selection, the selective component (otherwise called selective agent) should not be able to sustain significant growth and preferably have adverse/toxic effects to the non-transformed cells/tissues. To assess the applicability of galactose selection following transformation, a number of plant species representing a range of different botanical families were tested for sensitivity to galactose, using explants which may be suitable for transformation experiments. Cotyledonary explants useful for the transformation of sugar beet were prepared by excising the cotyledons from […] seedlings (Joersbo er al. 1998. Mol. Breeding 4: 111-117). The leaves were transferred to modified MS-medium (Murashiee and Skoog 1962. Physiol. Plant. 15: 473-497) containing 20 g/l sucrose and various concentrations galactose.

tissues of barley = conditions: Roberts et al.; cited from earlier work
sunflower explants = assay: Toxicity of galactose to sunflower apical explants (fresh weight); assay type: cell-based, Helianthus annuus; conditions: 20 g/l sucrose, 4-5 weeks, above controls on medium devoid of carbohydrate
Method: as §1
The preparation of apical explants useful for the transformation of sunflower were modified according to Knittel et al. (1994. Plant Cell Rep. 14: 81-86). The seed coats of 2 d old seedlings were gently removed and the cotyledons, the emerging root and the top of the apex were removed. The remaining part of the apex was cut off and divided into two halves and cultivated according to Knittel et al., with 20 g/l sucrose in the medium and galactose according to the experiment. After 4-5 weeks of culture at a 16 h/8 h day/night regime, growth was monitored by determining the fresh weight of the explants (above controls grown on a medium devoid of any carbohydrate source).

tissues of maize = conditions: Roberts et al.; cited from earlier work
pea hypocotyl explants = assay: Toxicity of galactose to pea hypocotyl explants; assay type: cell-based, Pisum sativum; conditions: after 5 weeks; versus control medium with 20 g/l sucrose (no galactose)
Method: as §1, with “experiments. Hypocotyl explants useful for the transformation of pea were prepared by excising the hypocotyl from 7 d old seedlings and transferred to a medium, according to Nielsen er al. (1991. Physiol. Plant 82: 99-102), containing various concentrations of sucrose and galactose. After 5 weeks, the growth of the explants were evaluated.” for “experiments.”

[4] = system: potato explants transformed with pVIC-galT; assay: Selection of transgenic potato shoots (galT vector) on galactose containing media; assay type: cell-based, Solanum tuberosum; conditions: for No. of transgenic shoots: GUS assay
Method: Young leaves useful for the transformation of potato were prepared from leaves of 28 d old in vitro shoot cultures. The leaves were cut off avoiding the meristem at the leaf corner and were cut twice across the midvein. The explants were inoculated for 30 min. with a suspension of Agrobacterium tumefaciens strain EHA101 (OD660=0.5) harbouring the transformation vector described above. After inoculation, the explants were dried carefully on filterpaper and left for co-cultivation for 3 d in dim light.
as §2, with “of” for “of modified”, “3 and 6” for “7-8”, “4).” for “3).”

[5] = 2.5 g/l galactose, sucrose 0 g/l
[6] = 2.5 g/l galactose, sucrose 5.0 g/l
[7] = 2.5 g/l galactose, sucrose 10 g/l
[8] = 2.5 g/l galactose, sucrose 20 g/l
[9] = 5.0 g/l galactose, sucrose 0 g/l
[10] = 5.0 g/l galactose, sucrose 5.0 g/l
[11] = 5.0 g/l galactose, sucrose 10 g/l
[12] = 5.0 g/l galactose, sucrose 20 g/l
[13] = galactose 1.25 g/l, sucrose 10 g/l
[14] = galactose 1.25 g/l, sucrose 15 g/l
[15] = galactose 1.25 g/l, sucrose 20 g/l
[16] = galactose 2.5 g/l, sucrose 10 g/l
[17] = galactose 2.5 g/l, sucrose 15 g/l
[18] = galactose 2.5 g/l, sucrose 20 g/l

Compound: OC[C@H]1OC(O)[C@H](O)[C@@H](O)[C@H]1O (mixture of isomers) [galactose]
- total number of explants with regenerated shoots (potato leaf explants; [5]): 1
- total number of explants with regenerated shoots (potato leaf explants; [6]): 0
- total number of explants with regenerated shoots (potato leaf explants; [7]): 0
- total number of explants with regenerated shoots (potato leaf explants; [8]): 7
- total number of explants with regenerated shoots (potato leaf explants; [9]): 0
- total number of explants with regenerated shoots (potato leaf explants; [10]): 0
- total number of explants with regenerated shoots (potato leaf explants; [11]): 0
- total number of explants with regenerated shoots (potato leaf explants; [12]): 0
- sensitivity to galactose (level of toxicity) (Petunia): fairly tolerant
- ability of galactose to sustain growth (Petunia; stated for all tested plant species incl. Petunia): unable to sustain growth
- Average shoot length (immature wheat embryos; galactose 2.5 g/l): 89
- Germination of embryos (immature wheat embryos; galactose 2.5 g/l): 43
- Average shoot length (immature wheat embryos; galactose 5.0 g/l): 67
- Germination of embryos (immature wheat embryos; galactose 5.0 g/l): 29
- Average shoot length (immature wheat embryos; galactose 7.5 g/l): 0
- Germination of embryos (immature wheat embryos; galactose 7.5 g/l): 0
- Average shoot length (immature wheat embryos; galactose 10 g/l): 33
- Germination of embryos (immature wheat embryos; galactose 10 g/l): 14
- Average shoot length (immature wheat embryos; galactose 15 g/l): 0
- Germination of embryos (immature wheat embryos; galactose 15 g/l): 0
- Transformation frequency (%) [1]: 1.0%
- No. of transgenic shoots ([1]; shoots more than 50% β-glucuronidase-positive, 7-8 weeks): 4
- total number of regenerated shoots [2, 5]: 0
- total number of regenerated shoots [2, 6]: 1
- total number of regenerated shoots [2, 7]: 7
- total number of regenerated shoots [2, 8]: 26
- total number of regenerated shoots [2, 9]: 0
- total number of regenerated shoots [2, 10]: 0
- total number of regenerated shoots [2, 11]: 3
- total number of regenerated shoots [2, 12]: 22
- fresh weight of the explants [3]: significant reduction
- number of shoots [3]: significant reduction
- toxicity to tissues of barley (tissues of barley): toxic
- Fresh weight (sunflower explants; galactose 5.0 g/l): 28 mg/explant
- Fresh weight (sunflower explants; galactose 7.5 g/l): 0 mg/explant
- Fresh weight (sunflower explants; galactose 10 g/l): 0 mg/explant
- Fresh weight (sunflower explants; galactose 15 g/l): 0 mg/explant
- toxicity to tissues of maize (tissues of maize): toxic
- growth of the explants (pea hypocotyl explants): unable to sustain any growth
- Transformation frequency (%) [4, 13]: 6.0%
- No. of transgenic shoots [4, 13]: 3
- Transformation frequency (%) [4, 14]: 14.0%
- No. of transgenic shoots [4, 14]: 7
- Transformation frequency (%) [4, 15]: 6.0%
- No. of transgenic shoots [4, 15]: 3
- Transformation frequency (%) [4, 16]: 2.0%
- No. of transgenic shoots [4, 16]: 1
- Transformation frequency (%) [4, 17]: 0%
- No. of transgenic shoots [4, 17]: 0
- Transformation frequency (%) [4, 18]: 8.0%
- No. of transgenic shoots [4, 18]: 4

From US6924145B1, “Selection method” (Danisco A/S, priority 1998, dated 2005)
